Measurements published in patent publication US20130253012A1, “Pyrazole Compounds for Controlling Invertebrate Pests” (BASF SE, priority 2010, published 2013).

Key:
Assay type in all cases: in vivo
[1] = test system: Cotton Aphid (Aphis gossypii, Mixed Life Stages); test: Cotton aphid, method a) (cotyledon dip); conditions: 300 ppm; cotton cotyledons dipped; counts after 5 days
Excerpt: (§1) II.1 Cotton Aphid (Aphis gossypii, Mixed Life Stages)
(§2) The active compounds were formulated in 50:50 (v/v) acetone:water and 100 ppm nonionic surfactant (Kinetic®).
Cotton plants at the cotyledon stage (one plant per pot) were infested by placing a heavily infested leaf from the main colony on top of each cotyledon. The aphids were allowed to transfer to the host plant overnight, and the leaf used to transfer the aphids was removed. The cotyledons were dipped in the test solution and allowed to dry. After 5 days, mortality counts were made.

[2] = test system: Green Peach Aphid (Myzus persicae, Mixed Life Stages); test: Green peach aphid, method a) (leaf dip, pepper plants); conditions: 300 ppm; pepper plant leaves dipped; after 5 days
Method: (§3) II.2 Green Peach Aphid (Myzus persicae, Mixed Life Stages)
as §2
Pepper plants in the 2nd leaf-pair stage (variety ‘California Wonder’) were infested with approximately 40 laboratory-reared aphids by placing infested leaf sections on top of the test plants. The leaf sections were removed after 24 hours. The leaves of the intact plants were dipped into gradient solutions of the test compound and allowed to dry. Test plants were maintained under fluorescent light (24 hour photoperiod) at about 25° C. and 20-40% relative humidity. Aphid mortality on the treated plants, relative to mortality on check plants, was determined after 5 days.

[3] = test system: Cowpea Aphid (Aphis craccivora); test: Cowpea aphid, sprayed potted cowpea plants; conditions: assessed after 24, 72 and 120 hours, read-out: mortality in comparison with untreated controls
Method: II.3 Cowpea Aphid (Aphis craccivora)
The active compounds were formulated in 50:50 (v/v) acetone:water. The test solution was prepared at the day of use.
Potted cowpea plants colonized with 100-150 aphids of various stages were sprayed after the pest population had been recorded. Population reduction was assessed after 24, 72, and 120 hours.

[4] = test system: Vetch Aphid (Megoura viciae); test: Vetch aphid, bean leaf disks in microtiterplates; conditions: foliar, 144 h, test solution 2500 mg/L, bean leaf disks sprayed with 2.5 μl, 6 days
Method: II.4 Vetch Aphid (Megoura viciae)
The active compounds were formulated in 1:3 (v/v) DMSO:water with different concentrations of formulated compounds.
Bean leaf disks were placed into microtiterplates filled with 0.8% agar-agar and 2.5 ppm OPUS™. The leaf disks were sprayed with 2.5 μl of the test solution and 5 to 8 adult aphids were placed into the microtiterplates which were then closed and kept at 23±1° C. and 50±5% relative humidity under fluorescent light for 6 days. Mortality was assessed on the basis of vital, reproduced aphids. Aphid mortality and fecundity was then visually assessed.

[5] = test system: Cotton Aphid (Aphis gossypii, Mixed Life Stages); test: Cotton aphid, method b) (electrostatic spray); conditions: 120 h, infested cotton plants sprayed, after 5 days, read-out: mortality in comparison with untreated controls
Method: as §1
(§4) The active compounds were formulated in cyclohexanone as a 10,0000 ppm solution supplied in 1.3 ml ABgene® tubes. These tubes were inserted into an automated electrostatic sprayer equipped with an atomizing nozzle and they served as stock solutions for which lower dilutions were made in 50% acetone:50% water (v/v). A nonionic surfactant (Kinetic®) was included in the solution at a volume of 0.01% (v/v).
Cotton plants at the cotyledon stage were infested with aphids prior to treatment by placing a heavily infested leaf from the main aphid colony on top of each cotyledon. Aphids were allowed to transfer overnight to accomplish an infestation of 80-100 aphids per plant and the host leaf was removed. The infested plants were then sprayed by an automated electrostatic plant sprayer equipped with an atomizing spray nozzle. The plants were dried in the sprayer fume hood, removed from the sprayer, and then maintained in a growth room under fluorescent lighting in a 24 hour photoperiod at 25° C. and 20-40% relative humidity. Aphid mortality on the treated plants, relative to mortality on untreated control plants, was determined after 5 days.

[6] = test system: Green Peach Aphid (Myzus persicae, Mixed Life Stages); test: Green peach aphid, method b) (electrostatic spray, bell pepper plants); conditions: 120 h, infested bell pepper plants sprayed, after 5 days, read-out: mortality in comparison with untreated controls
Method: as §3, §4
Bell pepper plants at the first true-leaf stage were infested prior to treatment by placing heavily infested leaves from the main colony on top of the treatment plants. Aphids were allowed to transfer overnight to accomplish an infestation of 30-50 aphids per plant and the host leaves were removed. The infested plants were then sprayed by an automated electrostatic plant sprayer equipped with an atomizing spray nozzle. The plants were dried in the sprayer fume hood, removed, and then maintained in a growth room under fluorescent lighting in a 24 hour photoperiod at 25° C. and 20-40% relative humidity. Aphid mortality on the treated plants, relative to mortality on untreated control plants, was determined after 5 days.

[7] = test system: Boll Weevil (Anthonomus grandis); test: Boll weevil, insect diet with eggs in 24-well microtiter plates; conditions: 120 h, test solution 2500 mg/L, 20 μl sprayed onto insect diet, 5 days, read-out: mortality (egg and larval)
Method: II.5 Boll Weevil (Anthonomus grandis)
The compounds were formulated in 75:25 (v/v) water:DMSO.
For evaluating control of boll weevil (Anthonomus grandis) the test unit consisted of 24-well-microtiter plates containing an insect diet and 20-30 A. grandis eggs. Different concentrations of formulated compounds were sprayed onto the insect diet at 20 μl, using a custom built micro atomizer, at two replications. After application, the microtiter plates were incubated at 23±1° C. and 50±5% relative humidity for 5 days. Egg and larval mortality was then visually assessed.

[8] = test system: Green Peach Aphid (Myzus persicae); test: Green peach aphid through systemic means, artificial diet under membrane; conditions: 72 h, pipetted into aphid diet, 3 days, read-out: mortality in comparison with untreated controls
Excerpt: II.6 Activity Against Green Peach Aphid (Myzus persicae)
For evaluating control of green peach aphid (Myzus persicae) through systemic means the test unit consisted of 96-well-microtiter plates containing liquid artificial diet under an artificial membrane.
The compounds were formulated using a solution containing 75% v/v water and 25% v/v DMSO. Different concentrations of formulated compounds were pipetted into the aphid diet, using a custom built pipetter, at two replications. After application, 5 to 8 adult aphids were placed on the artificial membrane inside the microtiter plate wells. The aphids were then allowed to suck on the treated aphid diet and incubated at about 23+1° C. and about 50+5% relative humidity for 3 days. Aphid mortality and fecundity was then visually assessed.

[9] = test system: Green Peach Aphids (Myzus persicae); test: Hydroponic test against green peach aphids (bare root pepper plants); conditions: bare roots immersed 24 hours, assay 3 days, read-out: mortality in comparison with untreated controls
Method: II.9 Activity in the Hydroponic Tests Against Green Peach Aphids (Myzus persicae)
(§5) Green pepper plants (Capsicum annuum L., variety ‘California Wonder’) were grown in the greenhouse from seed to the second true leaf stage (BBCH 12) in Scott's Metro-Mix® 360 (1 to 2 plants per 2¼″ square pot). Cotyledon leaves were removed and roots were rinsed in tap water until free of soil. The roots were kept moist under a layer of wet paper toweling until all plants had been prepared.
(§6) A 3,400 ppm stock solution was prepared of each test compound using reagent grade acetone as the solvent. Subsequent dilutions of 100 and 10 ppm were prepared from this stock with final dilutions in deionized water in 100 ml amber glass bottles. One bare root plant was placed in each bottle using a foam plug section to centrally secure the stem in the bottleneck. The bare roots were fully-immersed in the test suspensions. Host plants were placed in a plant growth room under continuous GroLux® fluorescent lighting (40 Watt), for 24 hours at 25±2° C. and 20-40% relative humidity.
After exposure of the bare roots to the test suspensions, pieces of pepper plants infested with green peach aphid (Myzus persicae) were placed on top of the test foliage. Insects were allowed to transfer from the host leaves to accomplish an infestation of 40-50 insects per plant. The assay was allowed to run for 3 days in the same growth room as used previously. Assessments included estimates of aphid population density reduction relative to the average density of aphids on the untreated control plants. Phytotoxic responses of the host plants were also recorded at this time.

[10] = test system: Cotton Aphids (Aphis gossypii); test: Hydroponic test against cotton aphids (bare root cotton plants); conditions: bare roots immersed 24 hours, assay 3 days, read-out: mortality in comparison with untreated controls
Method: II.10 Activity in the Hydroponic Tests Against Cotton Aphids (Aphis gossypii)
as §5, with “Cotton” for “Green pepper”, “(Gossypium hirsutum,” for “(Capsicum annuum L.,”, “‘Sure Grow 747’)” for “‘California Wonder’)”
as §6
After exposure of the bare roots to the test suspensions, pieces of cotton plants infested with cotton aphids (Aphis gossypi) were placed on top of the test foliage. Insects were allowed to transfer from the host leaves to accomplish an infestation of 40-50 insects per plant. […] Phytotoxic responses of the host plants were also recorded at this time.

[11] = test system: Silverleaf Whitefly (Bemisia argentifolii, Adult); test: Silverleaf whitefly, sprayed cotton plants; conditions: 72 h, 3 days after treatment, read-out: mortality in comparison with untreated controls
Method: II.7 Silverleaf Whitefly (Bemisia argentifolii, Adult)
as §4
Cotton plants at the cotyledon stage (one plant per pot) were sprayed by an automated electrostatic plant sprayer equipped with an atomizing spray nozzle. The plants were dried in the sprayer fume hood and then removed from the sprayer. Each pot was placed into a plastic cup and 10 to 12 whitefly adults (approximately 3-5 days old) were introduced. The insects were collected using an aspirator and 0.6 cm, nontoxic Tygon® tubing (R-3603) connected to a barrier pipette tip. The tip, containing the collected insects, was then gently inserted into the soil containing the treated plant, allowing insects to crawl out of the tip to reach the foliage for feeding. Cups were covered with a reusable screened lid (150-micron mesh polyester screen PeCap from Tetko, Inc.). […] Mortality was assessed 3 days after treatment, compared to untreated control plants.

| Structure (SMILES) | mortality at 500 ppm [3] | mortality at 2500 µg/mL [4] | mortality at 300 ppm [5] | mortality at 300 ppm [6] | mortality at 2500 µg/mL [7] | mortality at 2500 ppm [8] | mortality at 100 ppm [9] | other results |
| --- | --- | --- | --- | --- | --- | --- | --- | --- |
| Cn1cc(-c2nncn2-c2cccnc2)c(C(F)(F)F)n1 [Example 1] |  |  |  |  |  |  |  | mortality in comparison with untreated controls [1]: at least 75%; mortality in comparison with untreated controls [2]: at least 90% |
| Cc1c(-c2nncn2-c2cccnc2)cnn1CC(F)(F)F [Example 2, 3-{3-[5-Methyl-1-(2,2,2-trifluoroethyl)-1H-pyrazol-4-yl]-[1,2,4]triazol-4-yl}pyridine] | ≥ 75% |  |  |  |  |  |  |  |
| Cc1c(-c2nc(-c3cccnc3)co2)cnn1CC(F)(F)F [Example 4, 3-{2-[5-Methyl-1-(2,2,2-trifluoroethyl)-1H-pyrazol-4-yl]-oxazol-4-yl}pyridine] |  | ≥ 90% |  |  |  |  |  |  |
| Cc1c(-c2nnc(-c3cccnc3)o2)cnn1CC(F)(F)F [Example 14, 3-{5-[5-Methyl-1-(2,2,2-trifluoroethyl)-1H-pyrazol-4-yl]-[1,3,4]oxadiazol-2-yl}pyridine] | ≥ 75% |  | ≥ 75% | ≥ 75% | ≥ 50% |  |  |  |
| Cc1c(-c2nnc(-c3cccnc3)s2)cnn1CC(F)(F)F [Example 15, 3-{5-[5-Methyl-1-(2,2,2-trifluoroethyl)-1H-pyrazol-4-yl]-[1,3,4]thiadiazol-2-yl}pyridine] | ≥ 75% | ≥ 90% | ≥ 75% | ≥ 75% | ≥ 50% | 100% | ≥ 75% |  |
| Cc1c(C2=NCCN2c2cccnc2)cnn1CC(F)(F)F [Example 18, 3-{2-[5-Methyl-1-(2,2,2-trifluoroethyl)-1H-pyrazol-4-yl]-4,5-dihydroimidazol-1-yl}pyridine] | ≥ 75% |  | ≥ 75% | ≥ 75% |  | 100% | ≥ 75% | mortality at 100 ppm [10]: ≥ 75% |
| Cc1c(-c2nccn2-c2cccnc2)cnn1CC(F)(F)F [Example 20, 3-{2-[5-Methyl-1-(2,2,2-trifluoroethyl)-1H-pyrazol-4-yl]imidazol-1-yl}pyridine] | ≥ 75% | ≥ 90% | ≥ 75% | ≥ 75% |  | 100% | ≥ 75% | mortality at 500 ppm [11]: ≥ 75%; mortality at 100 ppm [10]: ≥ 75% |
| Cc1c(-c2nc(-c3cccnc3)nn2C)cnn1CC(F)(F)F [Example 38, 3-{1-methyl-5-[5-methyl-1-(2,2,2-trifluoroethyl)-1H-pyrazol-4-yl]-1H-[1,2,4]triazol-3-yl}pyridine] |  |  |  |  | ≥ 50% |  |  |  |
| Cc1c(-c2noc(=O)n2-c2cccnc2)cnn1CC(F)(F)F [Example 39, 3-{3-[5-Methyl-1-(2,2,2-trifluoroethyl)-1H-pyrazol-4-yl]-4H-[1,2,4]oxadiazol-5-on-4-yl}pyridine] | ≥ 75% | ≥ 90% |  |  |  | 100% |  |  |
